Measured values reported in ChEMBL document CHEMBL1201862, “PubChem BioAssay data set” (2004).
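All cell lines were grown in 96-well plates and treated with compound for 48 hours. GI50: concentration for 50% inhibition of growth.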 Calls of active or inactive are those of the source. Cut-off read from the data, not from the text of the source: active = GI50 up to about 1.1 µM and inactive = higher.

Columns and labels:
Test in all cases: inhibition of tumour cell growth, NCI panel, 48 h
Malme-3M = tested on: Malme-3M
OVCAR-4 = tested on: OVCAR-4
EKVX = tested on: EKVX
OVCAR-8 = tested on: OVCAR-8
SW-620 = tested on: SW-620
SF-295 = tested on: SF-295
SK-MEL-28 = tested on: SK-MEL-28
HCT-116 = tested on: HCT-116
SF-268 = tested on: SF-268
NCI-H226 = tested on: NCI-H226
SNB-75 = tested on: SNB-75
MOLT-4 = tested on: MOLT-4
SK-OV-3 = tested on: SK-OV-3
HT-29 = tested on: HT-29
UACC-62 = tested on: UACC-62

Measured: GI50

[O-][S+]1C(=c2ccc(=C3Sc4ccccc4S3)cc2)Sc2ccccc21 (configuration not stated)
inactive: Malme-3M > 100 µM | OVCAR-4 46.8 µM | EKVX 20 µM | OVCAR-8 17.9 µM | SW-620 > 100 µM | SF-295 17.1 µM | SK-MEL-28 3.03 µM | HCT-116 25.1 µM | SF-268 12.4 µM | NCI-H226 19.2 µM | SNB-75 19.1 µM | MOLT-4 > 71.9 µM | SK-OV-3 21.8 µM | HT-29 22.6 µM | UACC-62 18.1 µM

CCCCCCCCCCCCCCCC(=O)NCC(OCC)OCC
inactive: Malme-3M > 100 µM | OVCAR-4 > 100 µM | EKVX > 100 µM | OVCAR-8 > 100 µM | SW-620 > 100 µM | SF-295 > 100 µM | SK-MEL-28 > 100 µM | HCT-116 > 100 µM | SF-268 > 100 µM | NCI-H226 > 100 µM | SNB-75 > 100 µM | SK-OV-3 > 100 µM | HT-29 > 100 µM | UACC-62 > 100 µM

O=C(NC(=O)c1cc2cc(Br)cc(Br)c2oc1=O)Oc1ccccc1
inactive: Malme-3M > 100 µM | OVCAR-4 > 100 µM | EKVX > 100 µM | OVCAR-8 46.5 µM | SW-620 > 100 µM | SF-295 49.9 µM | SK-MEL-28 > 100 µM | HCT-116 > 100 µM | SF-268 > 100 µM | NCI-H226 78.2 µM | SNB-75 13.7 µM | MOLT-4 > 100 µM | SK-OV-3 37 µM | HT-29 > 100 µM | UACC-62 50.7 µM

O=C1OC2(OC2c2ccccc2)c2ccccc21 (configuration not stated)
inactive: Malme-3M > 100 µM | EKVX > 100 µM | OVCAR-8 > 100 µM | SW-620 > 100 µM | SK-MEL-28 > 100 µM | HCT-116 5.05 µM | SF-268 > 100 µM | NCI-H226 > 100 µM | SNB-75 > 100 µM | MOLT-4 > 100 µM | SK-OV-3 > 100 µM | HT-29 > 100 µM | UACC-62 > 100 µM

O=C(CCc1nnc(S)[nH]1)Nc1cc(Cl)ccc1Cl
inactive: Malme-3M > 100 µM | OVCAR-4 > 100 µM | EKVX > 100 µM | OVCAR-8 > 100 µM | SW-620 > 100 µM | SF-295 > 100 µM | SK-MEL-28 > 100 µM | HCT-116 > 100 µM | SF-268 > 100 µM | NCI-H226 > 100 µM | SNB-75 37.9 µM | MOLT-4 > 100 µM | SK-OV-3 > 100 µM | HT-29 > 100 µM | UACC-62 > 100 µM

COC(=O)C(c1n[nH]c2ccccc12)C(C(=O)OC)c1n[nH]c2ccccc12 (configuration not stated)
inactive: Malme-3M 42.7 µM | OVCAR-4 18.8 µM | EKVX > 100 µM | OVCAR-8 24.8 µM | SW-620 18.3 µM | SF-295 > 100 µM | SK-MEL-28 41.7 µM | HCT-116 41.4 µM | SF-268 > 100 µM | NCI-H226 > 100 µM | SNB-75 50.1 µM | MOLT-4 22.7 µM | SK-OV-3 > 100 µM | HT-29 64.4 µM | UACC-62 61.1 µM

N#C/N=C1\NC(Cc2ccccc2)C(=O)N1CCc1c[nH]c2ccccc12 (configuration not stated)
inactive: OVCAR-4 25.5 µM | EKVX 22.4 µM | OVCAR-8 37.4 µM | SW-620 34.9 µM | SF-295 32.4 µM | SK-MEL-28 23.6 µM | HCT-116 20.6 µM | SF-268 15.7 µM | NCI-H226 37.1 µM | SNB-75 8.87 µM | MOLT-4 18.4 µM | SK-OV-3 26.3 µM | HT-29 34.9 µM | UACC-62 23.2 µM

Cc1cc(C)nc(NS(=O)(=O)c2ccc(NC(=O)c3cccc4c(Nc5ccc(S(=O)(=O)N=C(N)N)cc5)c5ccc(Cl)cc5nc34)cc2)n1
inactive: Malme-3M 85.1 µM | EKVX 30.8 µM | OVCAR-8 39.4 µM | SF-295 24.1 µM | SK-MEL-28 37.4 µM | HCT-116 17.4 µM | SF-268 41 µM | SNB-75 > 100 µM | MOLT-4 15.6 µM | SK-OV-3 > 100 µM | HT-29 33.1 µM | UACC-62 34.4 µM

Nc1ccc(C(c2ccccc2)(c2ccccc2)c2ccccc2)cc1
inactive: Malme-3M 30.8 µM | OVCAR-4 24.7 µM | EKVX 27.2 µM | OVCAR-8 33.9 µM | SW-620 > 100 µM | SF-295 12.3 µM | SK-MEL-28 19.7 µM | HCT-116 62.1 µM | SF-268 99.3 µM | SNB-75 13.5 µM | MOLT-4 > 100 µM | SK-OV-3 17.6 µM | HT-29 45.5 µM | UACC-62 16.5 µM

Cc1cccc(C(C)(C)C)c1NC(=O)CC1C(=O)Nc2ccccc2S1(=O)=O (configuration not stated)
inactive: Malme-3M 11.8 µM | OVCAR-4 11.4 µM | EKVX 2.87 µM | OVCAR-8 10.6 µM | SW-620 10.4 µM | SF-295 7.1 µM | SK-MEL-28 14.1 µM | HCT-116 10.4 µM | SF-268 11.2 µM | NCI-H226 16.7 µM | SNB-75 12.5 µM | MOLT-4 2.28 µM | HT-29 5.25 µM | UACC-62 5.06 µM

O=C(CC1Sc2ccccc2NC1=O)Nc1cc(Cl)ccc1Cl (configuration not stated)
inactive: Malme-3M > 100 µM | OVCAR-4 > 100 µM | EKVX > 100 µM | OVCAR-8 > 100 µM | SW-620 > 100 µM | SF-295 > 100 µM | SK-MEL-28 > 100 µM | HCT-116 > 100 µM | SF-268 > 100 µM | NCI-H226 > 100 µM | SNB-75 33.4 µM | MOLT-4 29.8 µM | HT-29 > 100 µM | UACC-62 > 100 µM

C/C(O)=C1\CC2CN3CCc4c([nH]c5ccccc45)C3CC2CC1=O (configuration not stated)
inactive: Malme-3M > 100 µM | OVCAR-4 46 µM | EKVX 37 µM | OVCAR-8 89.1 µM | SW-620 38.5 µM | SF-295 > 100 µM | SK-MEL-28 > 100 µM | HCT-116 52.1 µM | SF-268 54.6 µM | NCI-H226 54.1 µM | SNB-75 21.4 µM | MOLT-4 21.8 µM | SK-OV-3 24.8 µM | HT-29 67.1 µM

CC(C)NC(=O)OCc1nnn2c1C(OC(=O)NC(C)C)CC2 (configuration not stated)
inactive: Malme-3M > 100 µM | OVCAR-4 > 100 µM | EKVX > 100 µM | OVCAR-8 > 100 µM | SW-620 > 100 µM | SF-295 > 100 µM | SK-MEL-28 > 100 µM | HCT-116 > 100 µM | NCI-H226 > 100 µM | SNB-75 > 100 µM | MOLT-4 > 100 µM | SK-OV-3 > 100 µM | HT-29 > 100 µM | UACC-62 > 100 µM

Cc1c(C(=O)CC(=O)C(=O)Nc2ccc(Cl)cc2)[n+]([O-])c2ccccc2[n+]1[O-]
inactive: Malme-3M > 100 µM | OVCAR-4 > 100 µM | EKVX > 100 µM | OVCAR-8 > 100 µM | SW-620 > 100 µM | SF-295 > 100 µM | SK-MEL-28 > 100 µM | HCT-116 > 100 µM | SF-268 > 100 µM | NCI-H226 > 100 µM | SNB-75 18.7 µM | MOLT-4 > 100 µM | SK-OV-3 > 100 µM | UACC-62 > 100 µM
